Test results as given in US20230087342A1, “AZEPANE DERIVATIVE” (Nippon Chemiphar Co., Ltd., priority 2019, published 2023).

Target: T1, human κ opioid receptors (Homo sapiens, UniProt P41145)
T1 construct: host or cells: CHO cells
Experiment: Opioid receptor function test (Lance Ultra cAMP kit, agonist activity)
Assay type: cell-based
Conditions: CHO cells expressing human κ opioid receptors, 10 μM forskolin, 30 minutes
Experimental: Opioid Receptor Function Test
The function activity of the compound of the present invention on κ opioid receptors was examined.
Method: Using a Lance Ultra cAMP kit (Perkin Elmer), the examination was performed according to a predetermined method. In evaluation of agonist activity, CHO cells expressing human κ opioid receptors (Catalog No. CT6606, accession No. NM_000912) and a test compound were reacted in an assay buffer (1×HSS, 5 mM HEPES, pH 7.4, 0.5 mM IBMX (isobutylmethyixanthine), 0.1% SA) in the presence of 10 μM forskolin for 30 minutes. Subsequently, a cAMP detection reagent in the kit was added. One hour later, time-resolved fluorescence measurement was performed using an EnVision plate reader (Perkin Elmer). The evaluation of the test compound was performed in a concentration range of 10^−14 to 10^−7 M for the κ opioid receptor function test.

T1 sequence (P41145 whole entry): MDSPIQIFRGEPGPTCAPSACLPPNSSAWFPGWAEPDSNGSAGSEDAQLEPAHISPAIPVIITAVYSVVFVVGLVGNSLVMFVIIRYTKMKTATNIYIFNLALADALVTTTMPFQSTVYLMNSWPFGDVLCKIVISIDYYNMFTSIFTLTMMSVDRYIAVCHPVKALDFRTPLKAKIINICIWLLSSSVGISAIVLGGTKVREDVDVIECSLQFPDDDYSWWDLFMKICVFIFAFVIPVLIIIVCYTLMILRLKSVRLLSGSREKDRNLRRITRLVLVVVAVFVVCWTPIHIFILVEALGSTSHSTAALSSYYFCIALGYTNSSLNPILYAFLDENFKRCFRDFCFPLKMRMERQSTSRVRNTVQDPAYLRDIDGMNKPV

Work on `C[Si]1(C)CCN(CC(=O)N2CC[C@]34CCN(CC5CC5)[C@H](Cc5ccc(O)cc53)[C@]4(O)CC2)CC1` [Example 132, 1-((5aS,6R,11bR)-14-(cyclopropylmethyl)-5a,10-dihydroxy-1,2,5,5a,6,7-hexahydro-6,11b-(epiminoethano)naphtho[1,2-d]azepin-3(4H)-yl)-2-(4,4-dimethyl-1,4-azasilinan-1-yl)ethan-1-one] yielded an EC50 of 160 pM.

`Cc1cnn(CCN2CC[C@]34CCN(CC5(O)CC5)[C@H](Cc5ccc(O)cc53)[C@]4(O)CC2)c1` [Example 225, (5aS,6R,11bS)-14-((1-hydroxycyclopropyl)methyl)-3-(2-(4-methyl-1H-pyrazol-1-yl)ethyl)-2,3,4,5,6,7-hexahydro-6,11b-(epiminoethano)naphtho[1,2-d]azepine-5a,10(1H)-diol] was tested, and the EC50 was 110 pM.

For `O=C(Cn1cc(Br)cn1)N1CC[C@]23CCN(CC4CC4)[C@H](Cc4ccc(O)cc42)[C@]3(O)CC1` [Example 60, 2-(4-bromo-1H-pyrazol-1-yl)-1-((5aS,6R,11bR)-14-(cyclopropylmethyl)-5a,10-dihydroxy-1,2,5,5a,6,7-hexahydro-6,11b-(epiminoethano)naphtho[1,2-d]azepin-3(4H)-yl)ethan-1-one], the EC50 was 56 pM.

`Oc1ccc2c(c1)[C@@]13CCN(CCc4cn5ccccc5n4)CC[C@@]1(O)[C@@H](C2)N(CC1CC1)CC3` [Example 116, (5aS,6R,11bS)-14-(cyclopropylmethyl)-3-(2-(imidazo[1,2-a]pyridin-2-yl)ethyl)-2,3,4,5,6,7-hexahydro-6,11b-(epiminoethano)naphtho[1,2-d]azepine-5a,10(1H)-diol] showed an EC50 of 21 pM.

For `Cc1cnn(C2CC(N3CC[C@]45CCN(CC6CC6)[C@H](Cc6ccc(O)cc64)[C@]5(O)CC3)C2)c1` (single isomer, unassigned) [Example 227 (I)], the EC50 was 15 pM.

`Oc1ccc2c(c1)[C@@]13CCN(CC4(c5ccccn5)CC4)CC[C@@]1(O)[C@@H](C2)N(CC1CC1)CC3` [Example 108, (5aS,6R,11bS)-14-(cyclopropylmethyl)-3-((1-(pyridin-2-yl)cyclopropyl)methyl)-2,3,4,5,6,7-hexahydro-6,11b-(epiminoethano)naphtho[1,2-d]azepine-5a,10(1H)-diol] showed an EC50 of 66 pM.

`Cn1cnc(CCN2CC[C@]34CCN(CC5CC5)[C@H](Cc5ccc(O)cc53)[C@]4(O)CC2)c1` [Example 41, (5aS,6R,11bS)-14-(cyclopropylmethyl)-3-(2-(1-methyl-1H-imidazol-4-yl)ethyl)-2,3,4,5,6,7-hexahydro-6,11b-(epiminoethano)naphtho[1,2-d]azepine-5a,10(1H)-diol] gave an EC50 of 130 pM.

`Cc1cc(C)n(CCN2CC[C@]34CCN(CC5CC5)[C@H](Cc5ccc(O)cc53)[C@]4(O)CC2)n1` [Example 56, (5aS,6R,11bS)-14-(cyclopropylmethyl)-3-(2-(3,5-dimethyl-1H-pyrazol-1-yl)ethyl)-2,3,4,5,6,7-hexahydro-6,11b-(epiminoethano)naphtho[1,2-d]azepine-5a,10(1H)-diol] was tested, and the EC50 was 970 pM.

Compound `Cn1nc(CCN2CC[C@]34CCN(CC5CC5)[C@H](Cc5ccc(O)cc53)[C@]4(O)CC2)cc1C(F)(F)F` [Example 37, (5aS,6R,11bS)-14-(cyclopropylmethyl)-3-(2-(1-methyl-5-(trifluoromethyl)-1H-pyrazol-3-yl)ethyl)-2,3,4,5,6,7-hexahydro-6,11b-(epiminoethano)naphtho[1,2-d]azepine-5a,10(1H)-diol] has an EC50 of 51 pM.

`NC(=O)c1ccc2c(c1)[C@@]13CCN(C(=O)Cc4n[nH]c5ccccc45)CC[C@@]1(O)[C@@H](C2)N(CC1CC1)CC3` [Example 265, (5aS,6R,11bR)-3-(2-(1H-indazol-3-yl)acetyl)-14-(cyclopropylmethyl)-5a-hydroxy-1,2,3,4,5,5a,6,7-octahydro-6,11b-(epiminoethano)naphtho[1,2-d]azepine-10-carboxamide] gave an EC50 of 120 pM.

For “(5aS,6R,11bS)-14-(cyclopropylmethyl)-3-((1R,3R)-3-(4-methyl-1H-pyrazol-1-yl)cyclopentyl)-2,3,4,5,6,7-hexahydro-6,11b-(epiminoethano)naphtho[1,2-d]azepine-5a,10(1H)-diol and (5aS,6R,11bS)-14-(cyclopropylmethyl)-3-((1S,3S)-3-(4-methyl-1H-pyrazol-1-yl)cyclopentyl)-2,3,4,5,6,7-hexahydro-6,11b-(epiminoethano)naphtho[1,2-d]azepine-5a,10(1H)-diol [Example 237]”, the EC50 was 290 pM.

`Cc1cc(CC(=O)N2CC[C@]34CCN(CC5CC5)[C@H](Cc5ccc(O)cc53)[C@]4(O)CC2)ns1` [Example 168, 1-((5aS,6R,11bR)-14-(cyclopropylmethyl)-5a,10-dihydroxy-1,2,5,5a,6,7-hexahydro-6,11b-(epiminoethano)naphtho[1,2-d]azepin-3(4H)-yl)-2-(5-methylisothiazol-3-yl)ethan-1-one] gave an EC50 of 47 pM.

`Oc1ccc2c(c1)[C@@]13CCN(CCn4nccn4)CC[C@@]1(O)[C@@H](C2)N(CC1CC1)CC3` [Example 66, (5aS,6R,11bS)-3-(2-(2H-1,2,3-triazol-2-yl)ethyl)-14-(cyclopropylmethyl)-2,3,4,5,6,7-hexahydro-6,11b-(epiminoethano)naphtho[1,2-d]azepine-5a,10(1H)-diol] was tested, and the EC50 was 140 pM.

In the case of `Oc1ccc2c(c1)[C@@]13CCN(CCCn4cc(C(F)(F)F)cn4)CC[C@@]1(O)[C@@H](C2)N(CC1CC1)CC3` [Example 179, (5aS,6R,11bS)-14-(cyclopropylmethyl)-3-(3-(4-(trifluoromethyl)-1H-pyrazol-1-yl)propyl)-2,3,4,5,6,7-hexahydro-6,11b-(epiminoethano)naphtho[1,2-d]azepine-5a,10(1H)-diol], the EC50 is reported as 24 pM.

Compound `CCc1cnn(CCN2CC[C@]34CCN(CC5CC5)[C@H](Cc5ccc(O)cc53)[C@]4(O)CC2)c1` [Example 193, (5aS,6R,11bS)-14-(cyclopropylmethyl)-3-(2-(4-ethyl-1H-pyrazol-1-yl)ethyl)-2,3,4,5,6,7-hexahydro-6,11b-(epiminoethano)naphtho[1,2-d]azepine-5a,10(1H)-diol] has an EC50 of 35 pM.

`Oc1ccc2c(c1)[C@@]13CCN(CCn4nc(C(F)F)cc4C(F)F)CC[C@@]1(O)[C@@H](C2)N(CC1CC1)CC3` [Example 58, (5aS,6R,11bS)-3-(2-(3,5-bis(difluoromethyl)-1H-pyrazol-1-yl)ethyl)-14-(cyclopropylmethyl)-2,3,4,5,6,7-hexahydro-6,11b-(epiminoethano)naphtho[1,2-d]azepine-5a,10(1H)-diol] showed an EC50 of 140 pM.

Work on `Oc1ccc2c(c1)[C@@]13CCN(CCn4cc(C(F)(F)F)cn4)CC[C@@]1(O)[C@@H](C2)N(CC1CC1)CC3` [Example 144, (5aS,6R,11bS)-14-(cyclopropylmethyl)-3-(2-(4-(trifluoromethyl)-1H-pyrazol-1-yl)ethyl)-2,3,4,5,6,7-hexahydro-6,11b-(epiminoethano)naphtho[1,2-d]azepine-5a,10(1H)-diol] yielded an EC50 of 19 pM.

With `Cc1cnn(CC(=O)N2CC[C@]34CCN(CC5CC5)[C@H](Cc5ccc(O)cc53)[C@]4(O)CC2)c1` [Example 49, 1-((5aS,6R,11bR)-14-(cyclopropylmethyl)-5a,10-dihydroxy-1,2,5,5a,6,7-hexahydro-6,11b-(epiminoethano)naphtho[1,2-d]azepin-3(4H)-yl)-2-(4-methyl-1H-pyrazol-1-yl)ethan-1-one] the EC50 was 89 pM.

`CN(C)CC(=O)N1CC[C@]23CCN(CC4CC4)[C@H](Cc4ccc(O)cc42)[C@]3(O)CC1` [Example 198, 1-((5aS,6R,11bR)-14-(cyclopropylmethyl)-5a,10-dihydroxy-1,2,5,5a,6,7-hexahydro-6,11b-(epiminoethano)naphtho[1,2-d]azepin-3(4H)-yl)-2-(dimethylamino)ethan-1-one] showed an EC50 of 590 pM.

`Cc1cc(CCN2CC[C@]34CCN(CC5CC5)[C@H](Cc5ccc(O)cc53)[C@]4(O)CC2)no1` [Example 188, (5aS,6R,11bS)-14-(cyclopropylmethyl)-3-(2-(5-methylisoxazol-3-yl)ethyl)-2,3,4,5,6,7-hexahydro-6,11b-(epiminoethano)naphtho[1,2-d]azepine-5a,10(1H)-diol] was tested, and the EC50 was 690 pM.

For `Oc1ccc2c(c1)[C@@]13CCN(CCc4cc5ccccc5cn4)CC[C@@]1(O)[C@@H](C2)N(CC1CC1)CC3` [Example 123, (5aS,6R,11bS)-14-(cyclopropylmethyl)-3-(2-(isoquinolin-3-yl)ethyl)-2,3,4,5,6,7-hexahydro-6,11b-(epiminoethano)naphtho[1,2-d]azepine-5a,10(1H)-diol], the EC50 was 64 pM.

With `CN(C)CCC(=O)N1CC[C@]23CCN(CC4CC4)[C@H](Cc4ccc(O)cc42)[C@]3(O)CC1` [Example 186, 1-((5aS,6R,11bR)-14-(cyclopropylmethyl)-5a,10-dihydroxy-1,2,5,5a,6,7-hexahydro-6,11b-(epiminoethano)naphtho[1,2-d]azepin-3(4H)-yl)-3-(dimethylamino)propan-1-one] the EC50 was 990 pM.

With `Cc1cccnc1CCN1CC[C@]23CCN(CC4CC4)[C@H](Cc4ccc(O)cc42)[C@]3(O)CC1` [Example 102, (5aS,6R,11bS)-14-(cyclopropylmethyl)-3-(2-(3-methylpyridin-2-yl)ethyl)-2,3,4,5,6,7-hexahydro-6,11b-(epiminoethano)naphtho[1,2-d]azepine-5a,10(1H)-diol] the EC50 was 130 pM.

`O=C(Cc1n[nH]c2ccccc12)N1CC[C@]23CCN(CC4CC4)[C@H](Cc4ccc(O)cc42)[C@]3(O)CC1` [Example 114, 1-((5aS,6R,11bR)-14-(cyclopropylmethyl)-5a,10-dihydroxy-1,2,5,5a,6,7-hexahydro-6,11b-(epiminoethano)naphtho[1,2-d]azepin-3(4H)-yl)-2-(1H-indazol-3-yl)ethan-1-one] showed an EC50 of 43 pM.
